Measurements as given in patent US11230544B1, “Substituted 1,3,4-thiadiazoles as GLS1 inhibitors” (MEDSHINE DISCOVERY INC., priority 2018, dated 2022).
Counter-ions that a name gives are not always drawn.

Columns and labels:
GLS1 = target: T1, GLS1 (Homo sapiens, UniProt O94925); assay: Activity test of compounds in a GLS1 coupling reaction system; format: biochemical; settings: enzyme GLS1 2 nM, 4.5 mM L-glutamine, 1 hour preincubation at 23° C.
T1 sequence (O94925 73-669 limits assumed): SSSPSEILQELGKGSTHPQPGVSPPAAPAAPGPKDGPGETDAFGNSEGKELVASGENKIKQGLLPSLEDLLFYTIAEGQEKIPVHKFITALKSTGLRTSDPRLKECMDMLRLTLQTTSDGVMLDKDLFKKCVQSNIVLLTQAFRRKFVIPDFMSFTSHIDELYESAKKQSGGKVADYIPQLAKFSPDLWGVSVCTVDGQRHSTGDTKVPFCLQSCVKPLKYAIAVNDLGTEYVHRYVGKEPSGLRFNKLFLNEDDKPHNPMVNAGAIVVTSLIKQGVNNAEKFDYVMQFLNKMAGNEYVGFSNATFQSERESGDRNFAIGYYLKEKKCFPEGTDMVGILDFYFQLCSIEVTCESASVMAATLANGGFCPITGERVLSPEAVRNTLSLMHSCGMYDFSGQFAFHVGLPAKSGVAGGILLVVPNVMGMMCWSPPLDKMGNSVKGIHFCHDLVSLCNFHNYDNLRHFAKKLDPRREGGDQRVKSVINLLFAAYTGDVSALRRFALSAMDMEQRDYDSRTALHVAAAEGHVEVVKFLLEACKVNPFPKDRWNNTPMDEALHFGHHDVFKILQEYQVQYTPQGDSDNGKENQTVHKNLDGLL
Experimental: Experimental Example 1: Activity Test of Compounds in a GLS1 Coupling Reaction System
The final concentration of each component in the final experimental buffer was 50 mM Tris-HCl pH 8.0, 0.25 mM EDTA, 150 mM K2HPO4, 0.1 mg/mL BSA, 1 mM DTT, and 0.01% o Triton X-100.
the 1× assay buffer was used to prepare “solution A” in the experiment (solution A contained L-glutamine, NAD+ and GLDH), and the final concentration of each component in the final experimental reaction system was 4.5 mM L-glutamine, 2 mM NAD+, and 4 U/mL GLDH; the 1× assay buffer was used to prepare “solution B” in the experiment—2× enzyme solution (solution B contained enzyme GLS1), and the final concentration of GLS1 in the final experimental reaction system was 2 nM.
The experiment plate was the plate prepared by Labcyte's ECHO that contained the gradient concentration of the compound and the corresponding DMSO solution before the experiment:
The experiment plate was taken out, and 20 μL of solution B (an enzyme GLS1 solution) was add to the 2nd to 23rd columns of the experiment plate, and then 20 μL of assay buffer was added to the 1st and 24th columns of the experiment plate, wherein the 1st and 24th columns were used as control groups of the experimental system; the plate was centrifuged at 1000 rpm for 30 seconds; the plate was sealed and incubated at 23° C. for 1 hour; I after 1 hour incubation, 20 μL of solution A was added to columns 1 to 24 of the experiment plate (i.e., addition of samples to the whole plate); the plate was centrifuged at 1000 […] for 30 seconds; the experiment plate was placed on SpectraMax 340PC, and read continuously for 20 minutes in the dynamic mode (the reading interval was set to 1 minute).

[1] = Pharmacokinetic evaluation of compounds in mice; format: in vivo; settings: mouse, plasma, female C57BL/6 mice; for bioavailability: oral, gavage vs intravenous; for half-life: tail intravenous injection and gavage, read-out: T1/2 (half-life) (converted); for half-life / AUC(0-inf) / Cmax: route not given; for Cmax: read-out: Cmax (peak concentration)
Experimental: Experimental Example 2: Pharmacokinetic Evaluation of Compounds
Objective: To test the in vivo pharmacokinetics of the compounds in mice
C57BL/6 mice (female, 7-9 weeks old, Shanghai SLAC)
Experiment operations: The clear solution obtained by dissolving the test compound was administered to female C57BL/6 mice (overnight fasting, 7-9 weeks old) via tail intravenous injection and gavage, respectively. After administration of the test compound or the control compound, blood was collected from the mandibular vein of the intravenous injection group at 0.0833, 0.25, 0.5, 1, 2, 4, 6, 8 and 24 hours, and of the gavage group at 0.0833, 0.25, 0.5, 1, 2, 4, 6, 8 and 24 hours, respectively, and centrifuged to obtain plasma. The LC-MS/MS method was used to determine the blood drug concentration, and the WinNonlin™ Version 6.3 pharmacokinetic software was used to calculate the relevant pharmacokinetic parameters by the non-compartmental model linear logarithmic trapezoidal method.

[2] = tested on: human myeloma RPMI-8226 cell; assay: In vivo pharmacodynamic study, CB-17 SCID nude mouse subcutaneous xenograft model of human myeloma RPMI-8226 cell; parameters: species or system mouse xenograft of human cells; settings: for Tumor volume (mm^3) (Day 14): Mean ± SEM, PO, Poma 1 mg/kg QD, CB-839 or compound 2 100 mg/kg (D1-D10) 150 mg/kg (D11-D14) BID
Description: Experimental Example 3 In Vivo Pharmacodynamic Study of a CB-17 SCID Nude Mouse Subcutaneous Xenograft Model of Human Myeloma RPMI-8226 Cell
Objective: Pomalidomide is used to treat multiple myeloma, and this experiment is used to study and evaluate the in vivo efficacy of the test compound combined with pomalidomide in the CB-17 SCID nude mouse subcutaneous xenograft model of human myeloma RPMI-8226 cell.
Experiment animals: female CB-17 SCID nude mice, 6 to 8 weeks old, with the body weigh of 18 to 22 grams; Supplier: Shanghai Lingchang Biological Technology Co., Ltd.
Human myeloma RPMI 8226 cells were cultured in a monolayer in vitro. The culture conditions were: RPMI 1640 medium (brand: gibco—22400089, batch: 1894220) supplemented with 10% fetal bovine serum, 100 U/mL penicillin and 100 μg/mL streptomycin, at 37° C. and 5% CO2. Conventional digestion treatment with pancreatin-EDTA for passage was carried out twice a week. When the cell confluence reached 80% to 90%, the cells were harvested, counted and inoculated.
0.2 mL (6×10^6 cells) of RPMI 8226 cells (supplemented with matrigel in a volume ratio of 1:1) were subcutaneously inoculated on the right back of each mouse. The grouping and administration were started when the average tumor volume reached 374 mm^3.
The test compound (compound 2) was formulated into a clear solution of 10 mg/mL, and the solvent was a 10 mM citric acid buffer containing 0.2% Tween-80 and 25% hydroxypropyl-β-cyclodextrin, pH=4. CB-839 was formulated into a clear solution of 10 mg/mL, and the solvent was a 10 mM citric acid buffer containing 25% hydroxypropyl-β-cyclodextrin, pH=2.2. Pomalidomide (Poma) was formulated into a clear solution of 0.1 mg/mL, and the solvent was 20% PEG400+80% (20% hydroxypropyl-β-cyclodextrin).
The experimental index was to investigate whether the tumor growth was inhibited, delayed or cured. Tumor diameter was measured twice a week with a vernier caliper. The calculation formula of tumor volume was V=0.5a×b^2, wherein a and b represented the long and short diameters of the tumor, respectively.
The anti-tumor efficacy of the compound was evaluated by TGI (%) or relative tumor proliferation rate T/C (%). TGI (%) reflected the tumor growth inhibition rate. Calculation of TGI (%): TGI (%)=[1−(average tumor volume at the end of administration in a treatment group−average tumor volume at the beginning of administration in this treatment group)/(average tumor volume at the end of administration in the solvent control group-average tumor volume at the beginning of administration in the solvent control group)]×100%.
Relative tumor proliferation rate T/C (%): the calculation formula was as follows: T/C %=TRTV/CRTV×100% (TRTV: mean RTV of the treatment group; CRTV: mean RTV of the negative control group). The relative tumor volume (RTV) was calculated according to the results of the tumor measurement. The calculation formula was RTV=Vt/V0, where V0 was the tumor volume measured at beginning of the grouping and administration (i.e., d0), and Vt was the tumor volume at the time of a certain measurement. TRTV and CRTV were obtained from the data on the same day.
Statistical analysis included mean value and standard error (SEM) of the tumor volume of each group at each time point (see Table 4 for specific data). […] The comparison between two groups was analyzed by T-test, and the comparison between three or more groups was analyzed by one-way ANOVA.
Statistical analysis of synergy: method for calculating Q value (also known as King's formula method) was as follows: Q=TGIA+B/(TGIA+TGIB−TGIA×TGIB). TGIA, TGIB and TGIA+B were the tumor inhibition rates when drug A was used alone, drug B was used alone, and drug A and drug B were used in combination, respectively.
In the experiment, the effect of the test compound on the weight of the animal was investigated. […]

| IC50 (GLS1) [µM] | SMILES | other results |
| --- | --- | --- |
| 0.132 | COC(C(=O)Nc1nnc(NC2CC=C(c3cccnn3)CC2)s1)c1cc(OC(F)(F)F)ccc1F (single isomer, unassigned) [Compound 1] | – |
| 0.0965 | COC(C(=O)Nc1nnc(NC2CC=C(c3cccnn3)CC2)s1)c1cc(OC(F)(F)F)ccc1F (single isomer, unassigned) [Compound 2] | bioavailability [1]: 34.8%; half-life [1]: 3.93 h; AUC(0-inf) [1]: 134 µM·h; Cmax [1]: 36.8 µM |
| 0.17 | COC(C(=O)Nc1nnc(NC2CCC(c3cccnn3)CC2)s1)c1cc(OC(F)(F)F)ccc1F (single isomer, unassigned) [Compound 3] | – |
| 4.9 | COC(C(=O)Nc1nnc(NC2CCC(c3cccnn3)CC2)s1)c1cc(OC(F)(F)F)ccc1F (single isomer, unassigned) [Compound 4] | – |
| – | O=C(Cc1cccc(OC(F)(F)F)c1)Nc1ccc(CCCCc2nnc(NC(=O)Cc3ccccn3)s2)nn1 [CB-839, reference compound] | bioavailability [1]: 27.1%; half-life [1]: 4.69 h; AUC(0-inf) [1]: 27.7 µM·h; Cmax [1]: 18.1 µM |
| 0.469 | CO[C@H](C(=O)Nc1nnc(NC2CCC(c3cc(C)cnn3)CC2)s1)c1cc(OC(F)(F)F)ccc1F (stereo partly shown) [Compound 5 (hydrochloride salt)] | – |
| 1.69 | CO[C@H](C(=O)Nc1nnc(NC2CCC(c3cc(C(=O)O)cnn3)CC2)s1)c1cc(OC(F)(F)F)ccc1F (stereo partly shown) [Compound 6 (hydrochloride salt)] | – |
| 0.133 | CO[C@H](C(=O)Nc1nnc(NC2CC=C(c3ccc(N)nn3)CC2)s1)c1cc(OC(F)(F)F)ccc1F (stereo partly shown) [Compound 7 (hydrochloride salt)] | – |
| 0.577 | COc1cccc(C(OC)C(=O)Nc2nnc(N[C@H]3CC[C@@H](c4cccnn4)CC3)s2)c1 (stereo partly shown) [Compound 8 (trifluoroacetate salt)] | – |
| 0.502 | COC(C(=O)Nc1nnc(N[C@H]2CC[C@@H](c3cccnn3)CC2)s1)c1cccc(OC(F)(F)F)c1 (stereo partly shown) [Compound 9 (hydrochloride salt)] | – |
| 1.59 | CO[C@H](C(=O)Nc1nnc(N[C@H]2CC[C@@H](c3cccnn3)CC2)s1)c1ccccc1 [Compound 10 (hydrochloride salt)] | – |
| 0.72 | COC(C(=O)Nc1nnc(N[C@H]2CC[C@@H](c3cccnn3)CC2)s1)c1cccc(OC(F)F)c1 (stereo partly shown) [Compound 11 (trifluoroacetate salt)] | – |
| 4.71 | COc1cc(C(OC)C(=O)Nc2nnc(N[C@H]3CC[C@@H](c4cccnn4)CC3)s2)ccc1F (stereo partly shown) [Compound 12 (trifluoroacetate salt)] | – |
| 0.18 | CO[C@H](C(=O)Nc1nnc(NC2CC=C(c3cc4cc[nH]c4nn3)CC2)s1)c1cc(OC(F)(F)F)ccc1F (stereo partly shown) [Compound 13 (trifluoroacetate salt)] | – |
| 0.757 | CO[C@H](C(=O)Nc1nnc(NC2CCC(c3cc4cc[nH]c4nn3)CC2)s1)c1cc(OC(F)(F)F)ccc1F (stereo partly shown) [Compound 14] | – |
| – | Nc1cccc2c1C(=O)N(C1CCC(=O)NC1=O)C2=O (stereo not shown) [Poma, Pomalidomide] | Tumor volume (mm^3) (Day 14) ([2]; Day 14 after administration): 1542 ± 259 mm^3; Tumor volume (mm^3) (Day 14) ([2]; Day 14 after administration, listed as pomalidomide): 1,542 mm^3; anti-tumor effect compared with the solvent control group ([2]; Day 14 after administration, result in words): no significant anti-tumor effect; T/C (%) ([2]; relative tumor proliferation rate, Day 14, vs solvent control group): 68.8%; RTV (Day 14) ([2]; relative tumor volume Vt/V0, Day 14, same dosing as tumor volume): 4.22 ± 0.50; TGI (%) ([2]; tumor growth inhibition rate, Day 14, vs solvent control group): 34.0% |
